Data: patent US5726162A (priority 1996, dated 1998)
Where two headings read alike, the source gives them in different places.

Experiments:
[1] = tested on: fungal inoculum; test: organism not typed; format: cell-based
[2] = tested on: Magnaporthe grisea (Pyricularia oryzae); test: whole plant or invertebrate; format: in vivo, Magnaporthe grisea (Pyricularia oryzae) on M201 rice plants; settings: for pest or weed control at 200 ppm: Pyricularia oryzae, 144 h, read-out: % Control RB
[3] = tested on: fungal mycelium; test: organism not typed; format: cell-based; settings: read-out: % growth inhibition
[4] = tested on: Candida albicans; test: Activity against Candida albicans in microtiter plates, % control of growth; format: cell-based
Experimental: The activity against Candida albicans was determined using the following test protocol.
Conidia and mycelium from the Candida albicans culture maintained on potato dextrose agar plates were lightly scraped off into yeast extract-dextrose broth (YDB) so that mostly conidia was used as inoculum. The conidial suspsension was strained through a double layer of cheesecloth to remove mycelial clumps. The inoculum mixture was placed in microtiter plates using a 12-tipped pipet. 175 microliters were placed in each well of the microliter plates and the plates were placed in the refrigerator overnight. There were two replications.
The compounds to be tested were dissolved in 1:1 acetone:methanol and 100 ppm of the compound solution were placed in a well of the prepared microtiter plates.
The microtiter plates were incubated for 7 days at room temperature after addition of the compounds. Percent control was visually estimated using a microtiter plate reading mirror. Readings were made at 1, 2, 3, and/or 7 days after treatment.

[5] = 24 h, 1 day after treatment, read-out: % control of growth +1
[6] = 48 h, 2 days after treatment, read-out: % control of growth +2
[7] = 72 h, 3 days after treatment, read-out: % control of growth +3

Question: How did the inhibition at 10 ppm ([1]; read-out: % growth inhibition) turn out when CCC#CCn1nc(-c2ccc(Cl)c(C)c2)ccc1=O [Compound 113] was run?
Answer: 64.3%

Question: What about the pest or weed control at 200 ppm [2] of the same compound?
Answer: 95%

Question: Which results are given for CC#CCn1nc(-c2ccc(Cl)c(C)c2)ccc1=O [Compound 114]?
Answer: inhibition at 5 ppm ([1]; read-out: % growth inhibition): 100%; pest or weed control at 200 ppm [2]: 50%

Question: With CCC#CCn1nc(-c2ccc(Cl)cc2C)ccc1=O [Compound 115] as the compound, how does the inhibition at 50 ppm ([1]; read-out: % growth inhibition) read?
Answer: 93.7%

Question: What about the pest or weed control at 200 ppm [2] of the same compound?
Answer: 50%

Question: Which inhibition at 50 ppm ([1]; read-out: % growth inhibition) does the source give for CC#CCn1nc(-c2ccc(Cl)cc2C)ccc1=O [Compound 116] here?
Answer: 82.5%

Question: What about the pest or weed control at 200 ppm [2] of the same compound?
Answer: 0%

Question: What does the source list for CCC#CCn1nc(-c2ccc(OCC)cc2)ccc1=O [Compound 117]?
Answer: inhibition at 200 ppm ([1]; read-out: % growth inhibition): 34.7%; pest or weed control at 200 ppm [2]: 0%

Question: With CCC#CCn1nc(-c2ccc(Cl)c(F)c2)ccc1=O [Compound 120] as the compound, how does the inhibition at 1 ppm [3] read?
Answer: 100%

Question: And the inhibition of growth at 100 ppm [4, 5]?
Answer: 100%

Question: And the inhibition of growth at 100 ppm [4, 6]?
Answer: 100%

Question: What about the inhibition of growth at 100 ppm [4, 7] of the same compound?
Answer: 100%

Question: What about the pest or weed control at 200 ppm [2] of the same compound?
Answer: 99%

Question: Which results are given for CCC#CCn1nc(-c2ccc(Br)cc2)ccc1=O [Compound 121]?
Answer: inhibition at 1 ppm [3]: 100%; inhibition of growth at 100 ppm [4, 5]: 100%; inhibition of growth at 100 ppm [4, 6]: 100%; inhibition of growth at 100 ppm [4, 7]: 100%; pest or weed control at 200 ppm [2]: 95%

Question: How did the “% growth inhibition” value [1] turn out when CCC[CH2][Sn]([C]#CCN1N=C(c2ccc(Cl)cc2)CCC1=O)([CH2]CCC)[CH2]CCC [Compound 124, 6-(4-chlorophenyl)-2-(3'-tri-n-butyltin-2'-propynyl)-4,5-dihydropyridazinon] was run?
Answer: 100.0%

Question: And the “% Control RB” value ([2]; 200 ppm, protectant)?
Answer: 0%

Question: For CCC#CCn1nc(-c2ccc(Br)c(F)c2)ccc1=O [Compound 127], which inhibition at 1 ppm [3] is on record?
Answer: 100%

Question: What about the inhibition of growth at 100 ppm [4, 5] of the same compound?
Answer: 100%

Question: What about the inhibition of growth at 100 ppm [4, 6] of the same compound?
Answer: 100%

Question: And the inhibition of growth at 100 ppm [4, 7]?
Answer: 100%

Question: And the pest or weed control at 200 ppm [2]?
Answer: 0%

Question: What does the source list for CC(F)C#CCn1nc(-c2ccc(Cl)cc2)ccc1=O (stereo not shown) [Compound 130]?
Answer: inhibition at 1 ppm [3]: 100%; inhibition of growth at 100 ppm [4, 5]: 100%; inhibition of growth at 100 ppm [4, 6]: 100%; inhibition of growth at 100 ppm [4, 7]: 100%

Question: For O=c1ccc(-c2ccc(Cl)cc2)nn1CC#CCCF [Compound 131], which inhibition at 1 ppm [3] is on record?
Answer: 100%

Question: And the inhibition of growth at 100 ppm [4, 5]?
Answer: 100%

Question: And the inhibition of growth at 100 ppm [4, 6]?
Answer: 100%

Question: What about the inhibition of growth at 100 ppm [4, 7] of the same compound?
Answer: 100%

Question: How did the inhibition at 50 ppm ([1]; read-out: % growth inhibition) turn out when CC#CCN1N=C(c2cccc3ccccc23)CCC1=O [Compound 134, 6-(1-naphthyl)-2-(2'-pentynyl)-4,5-dihydropyridazinone] was run?
Answer: 66.5%

Question: What about the pest or weed control at 200 ppm [2] of the same compound?
Answer: 0%

Question: Which inhibition at 1 ppm ([1]; read-out: % growth inhibition) does the source give for CCC#CCN1N=C(c2ccc3ccccc3c2)CCC1=O [Compound 136] here?
Answer: 84.6%

Question: And the pest or weed control at 200 ppm [2]?
Answer: 99%

Question: How did the inhibition at 100 ppm ([1]; read-out: % growth inhibition) turn out when CC#CCN1N=C(c2c(OC)ccc3ccc(OC)cc23)CCC1=O [Compound 138] was run?
Answer: 64.6%

Question: And the pest or weed control at 200 ppm [2]?
Answer: 0%

Question: CC#CCN1N=C(c2ccccc2)CCCC1=O [Compound 139, 2-(2-butynyl)-7-phenyl-1,2-diazapin-3-one] was tested. Which inhibition at 100 ppm ([1]; read-out: % growth inhibition) did it give?
Answer: 65%

Question: And the pest or weed control at 200 ppm [2]?
Answer: 0%

Question: With CC#CCN1N=C(c2cccs2)CCC1=O [Compound 140] as the compound, how does the inhibition at 100 ppm ([1]; read-out: % growth inhibition) read?
Answer: 37.8%

Question: What about the pest or weed control at 200 ppm [2] of the same compound?
Answer: 75%

Question: What does the source list for CC#CCN1N=C(c2ccc3ccc4cccc5ccc2c3c45)CCC1=O [Compound 141]?
Answer: inhibition at 100 ppm ([1]; read-out: % growth inhibition): 23.9%; pest or weed control at 200 ppm [2]: 0%

Question: Which results are given for CCC#CCN1N=C2c3ccccc3CC2CC1=O (stereo not shown) [Compound 142]?
Answer: inhibition at 50 ppm ([1]; read-out: % growth inhibition): 100%; pest or weed control at 200 ppm [2]: 50%

Question: CCC#CCn1cc(-c2ccc(Cl)cc2)cc(C#N)c1=O [Compound 146, 5-(4-chlorophenyl)-3-cyano-1-(2-pentyn-1-yl)-2-pyridinone] was tested. Which inhibition at 10 ppm ([1]; read-out: % growth inhibition) did it give?
Answer: 5%

Question: What about the pest or weed control at 200 ppm [2] of the same compound?
Answer: 0%

Question: For CCC#CCn1nc(-c2sc3ccccc3c2Br)ccc1=O [Compound 148], which inhibition at 10 ppm ([1]; read-out: % growth inhibition) is on record?
Answer: 0%

Question: What about the pest or weed control at 200 ppm [2] of the same compound?
Answer: 0%

Question: For CCC#CCC1(CC#CCC)c2cc(Cl)ccc2-c2n[nH]c(=O)cc21 [Compound 151, 5,5'-[bis(pent-2-yn-1-yl)]-7-chloro-2,5-dihydroindeno-[1,2-c]-(2H)-pyridazin-3-one], which inhibition at 100 ppm ([1]; read-out: % growth inhibition) is on record?
Answer: 80.6%

Question: What about the pest or weed control at 200 ppm [2] of the same compound?
Answer: 0%

Question: CCC#CCN1N=C(c2ccc(Cl)cc2)CCC1=S [Compound 153, 6-(4-chlorophenyl)-2-(2'-pentynyl)-4,5-dihydropyridazinthione] was tested. Which inhibition at 10 ppm [3] did it give?
Answer: 90.9%

Question: What about the inhibition of growth at 100 ppm [4, 5] of the same compound?
Answer: 100%

Question: What about the inhibition of growth at 100 ppm [4, 6] of the same compound?
Answer: 100%

Question: And the inhibition of growth at 100 ppm [4, 7]?
Answer: 100%

Question: And the pest or weed control at 200 ppm [2]?
Answer: 0%

Question: CCC#CCN1N=C(c2ccc3ccccc3n2)CCC1=O [Compound 229, 6-(2-quinoline)-2-(2'-pentynyl)-4,5-dihydropyridazinone] was tested. Which inhibition at 5 ppm [3] did it give?
Answer: 100%

Question: And the inhibition of growth at 100 ppm [4, 5]?
Answer: 100%

Question: What about the inhibition of growth at 100 ppm [4, 6] of the same compound?
Answer: 100%

Question: And the inhibition of growth at 100 ppm [4, 7]?
Answer: 100%
